Source: US8575103B2, “Peptides and methods for inhibiting G alpha protein signaling” (The Board of Trustees of the University of Illinois, priority 2009, dated 2013)
Entries after “also recorded” stand apart in the source; their conditions may differ. Where no end group is shown, it is not given here. The star is where a group is joined. Myristoyl = CCCCCCCCCCCCCC(=O)*

Key:
human platelets [1] = settings: Huang, et al. (2007) J. Biol. Chem. 282:10210-10222; cited from earlier work
α11bβ3 integrin [2] = assay: platelet α11bβ3 integrin activation, FITC-PAC1 antibody binding by flow cytometry; type: cell-based, human; settings: 150 μM peptide, 0.5 μM U46619, FITC-PAC1, compared to 500 μM Random Peptide
Protocol: The platelet count in human PRP was adjusted to 1×10^6 platelets/ml. The platelets were then labeled with FITC-conjugated PAC1 antibody against activated α11bβ3 integrin, and the samples were analyzed by flow cytometry in a Beckman Coulter CyAn II Flow Cytometer. Trace (a) depicts resting platelets labeled with FITC-PAC-1 antibody. Trace (b) depicts platelets stimulated with 0.5 μM U46619 and labeled with FITC-PAC1 antibody. Trace (c) depicts platelets incubated with 500 μM of the Random Peptide (SEQ ID NO:9), followed by 0.5 μM U46619 stimulation and FITC-PAC1 labeling. Trace (d) depicts platelets incubated with 150 μM of the G13SR2pep, followed by 0.5 μM U46619 stimulation and FITC-PAC1 labeling.
Subsequent experiments examined the effect of G13SR2pep, (SEQ ID NO:5) on human platelet α11bβ3 integrin activation as measured by FITC-PAC-1 antibody binding.

CD1 mice = assay: bleeding time in mice after intravenous administration; type: in vivo; settings: 100 μl of 3.7 mM intravenously via tail vein, tail cut five minutes after administration
Protocol: Briefly, CD1 mice (25 grams) were anesthetized with sodium pentobarbital, and either 100 μl of vehicle or 100 μl of a vehicle solution containing 3.7 mM of each peptide or aspirin was administered intravenously via the tail vein. Five minutes following administration, the tail was cut 0.5 cm from the tip and immersed in PBS buffer (pH 7.4; 37EC). Cessation of bleeding was observed visually and the total bleeding time was recorded.

calcium mobilization = assay: calcium flux / calcium mobilization in platelets; type: cell-based, human; settings: 250 μM peptide; induced by TRAP1 (10 μM), U46619 (0.5 μM) or ADP (10 μM)
Protocol: (§1) To further investigate the mechanism(s) by which G13SR2pep (SEQ ID NO:5) inhibited α11bβ3 integrin activation, the effect of G13SR2pep on calcium flux, RhoA activation, Src activation and changes in cAMP levels was determined using conventional assays.

RhoA = RhoA activation in platelets; type: cell-based, human; settings: 250 μM peptide; induced by TRAP1 (10 μM), U46619 (0.5 μM) or ADP (10 μM)
Protocol: as §1

Src = Src activation in platelets; type: cell-based, human; settings: 250 μM peptide; induced by TRAP1 (10 μM), U46619 (0.5 μM) or ADP (10 μM)
Protocol: as §1

cAMP levels = cAMP levels in human platelet-rich plasma; type: cell-based; settings: 250 μM peptide
Protocol: as §1

α11bβ3 integrin [3] = target: T1, α11bβ3 integrin (Homo sapiens, UniProt P05106+P08514+Q9Y490); assay: peptide affinity column with solubilized human platelets, western blot for α11bβ3; type: binding; settings: immunoblot, bands at 130 kD and 115 kD
T1 construct: detected two bands, one at 130 kD and the other at 115 kD in solubilized human platelets; endogenous in cells; host or cells: solubilized human platelets
Text: (§2) On this basis, subsequent experiments examined whether G13SR2pep peptide (SEQ ID NO:5) does indeed directly interact with α11bβ3 and/or one of its associated proteins in human platelets. In this respect, platelet α11bβ3 integrin is known to exist in a complex with two cytoplasmic proteins, i.e., talin and kindlin-3 (Tadokoro, et al. (2003) Science 302:103-6; Moser, et al. (2008) Nature Med. 14:325-30). To determine whether G13SR2pep, (SEQ ID NO:5) interacts with any of these proteins (or with the entire α11bβ3, talin, kindlin-3 complex), peptide affinity columns using G13SR2pep (SEQ ID NO:5) were employed. The affinity purified protein(s) from solubilized human platelets that specifically bound to the G13SR2pep peptide were eluted, and analyzed by western blot for α11bβ3 integrin, talin and kindlin-3. In similar experiments, the eluates from a peptide column using the G13SR2-Random Peptide (SEQ ID NO:9) were also analyzed. Immunoblot analysis with the α11bβ3 antibodies (Abcam) detected two bands, one at 130 kD and the other at 115 kD in solubilized human platelets as well as in the elution fraction obtained from the G13SR2pep (SEQ ID NO:5) affinity column. […] This was supported by similar experiments using talin antibodies and the kindlin 3 antibody (Abcam).

talin = target: T2, talin (Homo sapiens, UniProt Q9Y490); assay: peptide affinity column with solubilized human platelets, western blot for talin; type: binding
T2 construct: also purified whole talin (220 kD), the talin head domain (47 kD) and kindlin 3 (72 kD); endogenous in cells; host or cells: solubilized human platelets
Text: as §2
Thus, the binding of G13SR2pep (SEQ ID NO:5) to the talin head domain serves as the basis for the ability of G13SR2pep to inhibit α11bβ3 integrin activation and platelet aggregation. As such, peptides or specific compounds fashioned to mimic or modify the switch region interaction with talin, α11bβ3 integrin or other α11bβ3 integrin-associated proteins would have profound effects on thrombosis and other integrin-linked disease processes.

kindlin-3 = target: T3, kindlin-3 (Homo sapiens, UniProt Q86UX7); assay: peptide affinity column with solubilized human platelets, western blot for kindlin-3; type: binding; settings: immunoblot, kindlin 3 (72 kD)
T3 construct: also purified whole talin (220 kD), the talin head domain (47 kD) and kindlin 3 (72 kD); endogenous in cells; host or cells: solubilized human platelets
Text: as §2

human platelets [4] = assay: human platelet aggregation in platelet rich plasma (PRP); type: cell-based; settings: PRP

T2 sequence (Q9Y490 1-433): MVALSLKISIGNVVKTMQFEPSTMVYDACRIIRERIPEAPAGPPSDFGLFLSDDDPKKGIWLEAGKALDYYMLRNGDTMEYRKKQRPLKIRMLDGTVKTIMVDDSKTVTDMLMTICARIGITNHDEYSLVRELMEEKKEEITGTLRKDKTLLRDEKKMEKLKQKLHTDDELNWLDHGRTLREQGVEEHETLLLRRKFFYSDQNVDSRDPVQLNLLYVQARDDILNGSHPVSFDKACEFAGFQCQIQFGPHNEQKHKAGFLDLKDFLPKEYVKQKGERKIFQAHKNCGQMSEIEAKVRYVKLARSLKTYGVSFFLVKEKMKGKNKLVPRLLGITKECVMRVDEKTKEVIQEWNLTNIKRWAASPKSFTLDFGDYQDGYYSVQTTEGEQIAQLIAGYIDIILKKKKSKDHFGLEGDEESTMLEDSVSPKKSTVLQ

Row | Substance | inhibition of PAR1-induced human platelet aggregation (human platelets [1]) | inhibition of U46619-mediated activation of α11bβ3 integrin (α11bβ3 integrin [2]) | bleeding time (CD1 mice) | calcium mobilization (calcium mobilization) | RhoA activation (RhoA) | Src activation (Src) | cAMP levels (cAMP levels) | α11bβ3 in affinity column eluate (interaction with peptide) (α11bβ3 integrin [3]) | talin in affinity column eluate (talin; solubilized human platelets, immunoblot, whole talin (220 kD), talin head domain (47 kD)) | binding to talin head domain (talin; α11bβ3-talin-kindlin 3 complex dissociated, affinity column eluates) | kindlin 3 in affinity column eluate (kindlin-3) | platelet aggregation induced by the divalent cation ionophore A23187 (human platelets [4]; 150 μM peptide, 10 μM A23187) | inhibition of human platelet aggregation stimulated by U46619 (human platelets [4]; 75-150 μM G13SR2pep (Random Peptide 500 μM), 0.5 μM U46619) | inhibition of human platelet aggregation stimulated by ADP (human platelets [4]; 75-150 μM G13SR2pep (Random Peptide 500 μM), 10 μM ADP) | inhibition of human platelet aggregation stimulated by TRAP1 (human platelets [4]; 75-150 μM G13SR2pep (Random Peptide 500 μM), 15 μM TRAP1) | inhibition of human platelet aggregation stimulated by TRAP4 (human platelets [4]; 75-150 μM G13SR2pep (Random Peptide 500 μM), 50 μM TRAP4)
1 | Myr-Leu-Leu-Ala-Arg-Arg-Pro-Thr-Lys-Gly-Ile-His-Glu-Tyr (Myristoyl-LLARRPTKGIHEY) [Myr-G13SR1pep, original permeable peptide representing SR1 of the Gα13 subunit (Huang, et al. 2007)] | selectively and dose-dependently inhibited | – | – | – | – | – | – | – | – | – | – | – | – | – | – | –
2 | VGGQRSERKRWFECFDS [G13SR2pep, non-myristoylated G13 Switch Region 2 peptide] | – | dramatically inhibited | increased bleeding times; also recorded: substantially increases | did not alter | did not alter | did not alter | did not alter | directly interacts | purified | binding partner | purified | capable of blocking | dose-dependent inhibition | dose-dependent inhibition | dose-dependent inhibition | dose-dependent inhibition
